# Data: the supplement of paper PMC10307832
# Legend:
# Test in all cases: relative viability (nuclei count vs DMSO), 5 days (fraction); higher = more cells survive
# LCLC-103H = test system: LCLC-103H
# In short: (§1)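 Relative viability divides the nuclei count in treated wells by that in vehicle wells. Lung cancer cell lines were seeded in 1536-well plates, dosed by pin tool the next day, and fixed and stained after 5 days in one step with final 0.05% Triton X-100, 1% formaldehyde and 1 ug/ml Hoechst. Dosing was a single drug or a fixed anchor-drug dose plus five library-drug doses (not always all listed) in √10 steps, and values are medians of duplicate plates imaged at 4×.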
# NCI-H1666 = test system: NCI-H1666
# In short: as §1
# LOU-NH91 = test system: LOU-NH91
# In short: as §1
# NCI-H647 = test system: NCI-H647
# In short: as §1
# PC-14 = test system: PC-14
# In short: as §1
# LXF-289 = test system: LXF-289
# In short: as §1
# HCC-827 = test system: HCC-827
# In short: as §1
# LK-2 = test system: LK-2
# In short: as §1
# NCI-H727 = test system: NCI-H727
# In short: as §1
# BEN = test system: BEN
# In short: as §1
# NCI-H2170 = test system: NCI-H2170
# In short: as §1
# NCI-H661 = test system: NCI-H661
# In short: as §1
# NCI-H1993 = test system: NCI-H1993
# In short: as §1
# SK-MES-1 = test system: SK-MES-1
# In short: as §1
# HOP-62 = test system: HOP-62
# In short: as §1
# NCI-H441 = test system: NCI-H441
# In short: as §1
# RERF-LC-KJ = test system: RERF-LC-KJ
# In short: as §1
# NCI-H1437 = test system: NCI-H1437
# In short: as §1
# EKVX = test system: EKVX
# In short: as §1
# ChaGo-K-1 = test system: ChaGo-K-1
# In short: as §1
# NCI-H2126 = test system: NCI-H2126
# In short: as §1
# NCI-H1944 = test system: NCI-H1944
# In short: as §1
# NCI-H1355 = test system: NCI-H1355
# In short: as §1
compound,measurement,setting,value
Cc1csc(=NC2CCCCC2)n1/N=C/c1ccc(O)c(O)c1O [MIM1] + Cc1nc(Nc2ncc(C(=O)Nc3c(C)cccc3Cl)s2)cc(N2CCN(CCO)CC2)n1 [Dasatinib] (partner 0.075 µM),relative viability,LCLC-103H; first compound 0.2 µM,0.422
same,relative viability,LCLC-103H; first compound 0.6325 µM,0.519
same,relative viability,LCLC-103H; first compound 2 µM,0.512
same,relative viability,LCLC-103H; first compound 6.325 µM,0.401
same,relative viability,LCLC-103H; first compound 20 µM,0.364
same,relative viability,NCI-H1666; first compound 0.2 µM,0.788
same,relative viability,NCI-H1666; first compound 0.6325 µM,0.852
same,relative viability,NCI-H1666; first compound 2 µM,0.711
same,relative viability,NCI-H1666; first compound 6.325 µM,0.528
same,relative viability,NCI-H1666; first compound 20 µM,0.41
same,relative viability,LOU-NH91; first compound 0.2 µM,0.502
same,relative viability,LOU-NH91; first compound 0.6325 µM,0.529
same,relative viability,LOU-NH91; first compound 2 µM,0.537
same,relative viability,LOU-NH91; first compound 6.325 µM,0.497
same,relative viability,LOU-NH91; first compound 20 µM,0.365
same,relative viability,NCI-H647; first compound 0.2 µM,0.232
same,relative viability,NCI-H647; first compound 0.6325 µM,0.225
same,relative viability,NCI-H647; first compound 6.325 µM,0.145
same,relative viability,NCI-H647; first compound 20 µM,0.0584
same,relative viability,PC-14; first compound 0.2 µM,0.301
same,relative viability,PC-14; first compound 0.6325 µM,0.27
same,relative viability,PC-14; first compound 2 µM,0.171
same,relative viability,PC-14; first compound 6.325 µM,0.233
same,relative viability,PC-14; first compound 20 µM,0.0786
same,relative viability,LXF-289; first compound 0.2 µM,0.224
same,relative viability,LXF-289; first compound 0.6325 µM,0.174
same,relative viability,LXF-289; first compound 2 µM,0.194
same,relative viability,LXF-289; first compound 6.325 µM,0.275
same,relative viability,LXF-289; first compound 20 µM,0.177
same,relative viability,HCC-827; first compound 0.2 µM,0.376
same,relative viability,HCC-827; first compound 0.6325 µM,0.308
same,relative viability,HCC-827; first compound 2 µM,0.259
same,relative viability,HCC-827; first compound 6.325 µM,0.348
same,relative viability,HCC-827; first compound 20 µM,0.488
same,relative viability,LK-2; first compound 0.2 µM,0.358
same,relative viability,LK-2; first compound 2 µM,0.202
same,relative viability,LK-2; first compound 6.325 µM,0.269
same,relative viability,LK-2; first compound 20 µM,0.176
same,relative viability,NCI-H727; first compound 0.2 µM,0.383
same,relative viability,NCI-H727; first compound 0.6325 µM,0.36
same,relative viability,NCI-H727; first compound 2 µM,0.276
same,relative viability,NCI-H727; first compound 6.325 µM,0.356
same,relative viability,NCI-H727; first compound 20 µM,0.267
same,relative viability,BEN; first compound 0.2 µM,0.304
same,relative viability,BEN; first compound 0.6325 µM,0.308
same,relative viability,BEN; first compound 2 µM,0.348
same,relative viability,BEN; first compound 6.325 µM,0.378
same,relative viability,BEN; first compound 20 µM,0.158
same,relative viability,NCI-H2170; first compound 0.2 µM,0.569
same,relative viability,NCI-H2170; first compound 0.6325 µM,0.498
same,relative viability,NCI-H2170; first compound 2 µM,0.73
same,relative viability,NCI-H2170; first compound 6.325 µM,0.382
same,relative viability,NCI-H2170; first compound 20 µM,0.172
same,relative viability,NCI-H661; first compound 0.2 µM,0.997
same,relative viability,NCI-H661; first compound 0.6325 µM,0.866
same,relative viability,NCI-H661; first compound 2 µM,0.87
same,relative viability,NCI-H661; first compound 6.325 µM,0.406
same,relative viability,NCI-H661; first compound 20 µM,0.224
same,relative viability,NCI-H1993; first compound 0.2 µM,0.349
same,relative viability,NCI-H1993; first compound 0.6325 µM,0.57
same,relative viability,NCI-H1993; first compound 2 µM,0.545
same,relative viability,NCI-H1993; first compound 6.325 µM,0.484
same,relative viability,NCI-H1993; first compound 20 µM,0.411
same,relative viability,SK-MES-1; first compound 0.2 µM,0.369
same,relative viability,SK-MES-1; first compound 0.6325 µM,0.371
same,relative viability,SK-MES-1; first compound 2 µM,0.259
same,relative viability,SK-MES-1; first compound 6.325 µM,0.27
same,relative viability,SK-MES-1; first compound 20 µM,0.367
same,relative viability,HOP-62; first compound 0.2 µM,0.579
same,relative viability,HOP-62; first compound 0.6325 µM,0.696
same,relative viability,HOP-62; first compound 2 µM,0.677
same,relative viability,HOP-62; first compound 6.325 µM,0.629
same,relative viability,HOP-62; first compound 20 µM,0.16
same,relative viability,NCI-H441; first compound 0.2 µM,0.522
same,relative viability,NCI-H441; first compound 2 µM,0.631
same,relative viability,NCI-H441; first compound 6.325 µM,0.481
same,relative viability,NCI-H441; first compound 20 µM,0.262
same,relative viability,RERF-LC-KJ; first compound 0.2 µM,0.632
same,relative viability,RERF-LC-KJ; first compound 0.6325 µM,0.748
same,relative viability,RERF-LC-KJ; first compound 2 µM,0.551
same,relative viability,RERF-LC-KJ; first compound 6.325 µM,0.361
same,relative viability,RERF-LC-KJ; first compound 20 µM,0.228
same,relative viability,NCI-H1437; first compound 0.2 µM,0.456
same,relative viability,NCI-H1437; first compound 0.6325 µM,0.406
same,relative viability,NCI-H1437; first compound 2 µM,0.55
same,relative viability,NCI-H1437; first compound 6.325 µM,0.285
same,relative viability,NCI-H1437; first compound 20 µM,0.151
same,relative viability,EKVX; first compound 0.2 µM,0.591
same,relative viability,EKVX; first compound 2 µM,0.558
same,relative viability,EKVX; first compound 6.325 µM,0.514
same,relative viability,EKVX; first compound 20 µM,0.391
same,relative viability,ChaGo-K-1; first compound 0.2 µM,0.594
same,relative viability,ChaGo-K-1; first compound 0.6325 µM,0.552
same,relative viability,ChaGo-K-1; first compound 2 µM,0.562
same,relative viability,ChaGo-K-1; first compound 6.325 µM,0.466
same,relative viability,ChaGo-K-1; first compound 20 µM,0.173
same,relative viability,NCI-H2126; first compound 0.2 µM,0.679
same,relative viability,NCI-H2126; first compound 0.6325 µM,0.582
same,relative viability,NCI-H2126; first compound 2 µM,0.583
same,relative viability,NCI-H2126; first compound 6.325 µM,0.471
same,relative viability,NCI-H2126; first compound 20 µM,0.287
same,relative viability,NCI-H1944; first compound 0.2 µM,0.214
same,relative viability,NCI-H1944; first compound 0.6325 µM,0.204
same,relative viability,NCI-H1944; first compound 2 µM,0.21
same,relative viability,NCI-H1944; first compound 6.325 µM,0.191
same,relative viability,NCI-H1944; first compound 20 µM,0.176
same,relative viability,NCI-H1355; first compound 0.2 µM,0.746
same,relative viability,NCI-H1355; first compound 0.6325 µM,0.682
same,relative viability,NCI-H1355; first compound 2 µM,0.698
same,relative viability,NCI-H1355; first compound 6.325 µM,0.655
same,relative viability,NCI-H1355; first compound 20 µM,0.391
